Assay results from US5629430A, “Trifluoromethylpyrroloindolecarboxylic acid ester and process for production thereof” (Kyorin Pharmaceutical Co., Ltd., priority 1992, dated 1997).
Values after ≈ are worked out from the molar mass of the structure shown. Like-named read-outs stand apart in the source and are kept apart here.

What was measured:
Sarcoma-180 cells = assay: Antineoplastic activity, mice having Sarcoma-180 cells transplanted subcutaneously; assay type: in vivo, mouse (female, CDR strain); conditions: Mus musculus, Sarcoma-180, iv, 144 h, read-out: T/C (average tumor weight, dosed vs. solvent-dosed control); for response vs control in vivo at 0.25 mg/kg: i.v. 0.25 mg/kg single dose, tumor weighed six days after dosage
Method: (§1) The test compound was dissolved in dimethylsulfoxide, and the solution was adequately diluted with 10% Emulfore EL620(produced by Rhone Poulenc Co.) to prepare the test compound solution. The antineoplastic activity was evaluated as below.
To the lateral region of a female mouse (CDR strain, 5 to 6 week age), 3.6×10^6 to 5×10^6 Sarcoma-180 cells were transplanted subcutaneously. Next day, the test medicine solution was injected into the tail vein in a single dose. Eight to twelve mice were employed for the solvent-dosed control group, and five mice were employed for the dosed group. Six days after the dosage, the tumor was cut out, and the weight thereof was measured. The antineoplastic effect was evaluated by the ratio (T/C) of the average tumor weight of the dosed group (T) to the average tumor weight of the solvent-dosed control group (C).

[1] = tested on: P388 mouse leukemia cells; assay: Activity against tumor cell growth (P388, MTT, 72 h); assay type: cell-based; conditions: read-out: IC50 (50% growth inhibition concentration)
How it was run: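 P388 cells at 1.5×10^5 cells/ml in RPMI1640 with 10% FBS, 2 mM glutamine and 5 μM 2-hydroxyethyldisulfide; DMSO-dissolved compound diluted in medium, 72 h at 37 °C, 5% CO2. MTT added for 3 h, formazan dissolved in HCl-isopropanol, A540 read. IC50 from absorbance ratio versus untreated cells.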

P388 cells = assay: Antineoplastic activity, mice having P388 cells transplanted in abdominal cavity; assay type: in vivo, mouse (female, CDF1 strain); conditions: for T/C in words: cure (Survived for 60 days or longer): two mice, Cured: Survived for 60 days or longer; for T/C (average survival days, dosed vs. solvent-dosed control): next day after transplantation, >=130% effective
Method: as §1
To the abdominal cavity of a female mouse (CDF1 strain, 8 to 9 week age), 1×10^6 P388 cells were transplanted. Next day, the test medicine solution was injected intraperitonealy in a single dose. Five to eight mice were employed for the solvent-dosed control group, and two mice were employed for each of the dosed groups. The antineoplastic effect was evaluated by the ratio (T/C, %) of the average survival days of the dosed group (T) to the average survival days of the solvent-dosed control group(C). The T/C ratio of 130% or more is evaluated to be effective.
"Cured": Survived for 60 days or longer

Colon-26 cells = assay: Antineoplastic activity, mice having Colon-26 cells transplanted subcutaneously; assay type: in vivo, mouse (female, CDF1 strain); conditions: Mus musculus, Colon 26, iv, 168 h, read-out: T/C (average tumor weight, dosed vs. solvent-dosed control); for response vs control in vivo at 0.25 mg/kg: i.v. 0.25 mg/kg single dose on sixth day, tumor weighed one week after dosage
Method: as §1
To the lateral region of a female mouse (CDF1 strain, 8 to 12 week age), 1×10^6 Colon-26 cells were transplanted subcutaneously. On the sixth day after the transplantation, the test medicine solution-was injected into the tail vein in a single dose. Seven to twelve mice were employed for the solvent-dosed control group, and five mice were employed for the dosed group. One week after the dosage, the tumor was cut out, and the weight thereof was measured. The antineoplastic effect was evaluated by the ratio (T/C) of the average tumor weight of the dosed group (T) to the average tumor weight of the solvent-dosed control group (C).

[2] = P388 mouse leukemia cells, 72 h, 37° C., MTT

Row | SMILES | IC50 ([1]; Mus musculus, P388, 72 h) [ng/mL] | IC50 [1, 2] [ng/mL] | response vs control in vivo at 0.25 mg/kg (Sarcoma-180 cells) [%] | T/C (average survival days, dosed vs. solvent-dosed control) (P388 cells; i.p. 0.125 mg/kg single dose) [%] | further results
1 | COC(=O)c1c(C(F)(F)F)[nH]c2c(OC(=O)N3CCN(C)CC3)cc3c(c12)C(CCl)CN3C(=O)c1cc2cc(NC(=O)c3cc4ccccc4o3)ccc2[nH]1 (centres unmarked) [Example 48] | 80 (≈ 103 nM) |  |  |  | response vs control in vivo at 1 mg/kg (Sarcoma-180 cells): 8%; T/C in words: cure (Survived for 60 days or longer) (P388 cells; i.p. 0.5 mg/kg single dose): Both cured; response vs control in vivo at 1 mg/kg (Colon-26 cells): 6%
2 | COC(=O)c1c(C(F)(F)F)[nH]c2c(O)cc3c(c12)C(CCl)CN3C(=O)c1cc2cc(OC)ccc2[nH]1 (centres unmarked) [Example 8, Methyl 1-chloromethyl-5-hydroxy-3-(5-methoxy-1H-indol-2-ylcarbonyl)-7-trifluoromethyl-1,2,3,6-tetrahydropyrrolo[3,2-e]indole-8-carboxylate] |  | 0.21 (≈ 0.402 nM) |  |  | T/C (average survival days, dosed vs. solvent-dosed control) (P388 cells; i.p. 1.0 mg/kg single dose): 198%
3 | COC(=O)c1c(C(F)(F)F)[nH]c2c(O)cc3c(c12)C(CBr)CN3C(=O)c1cc2cc(OC)c(OC)c(OC)c2[nH]1 (centres unmarked) [Example 34, methyl 1-bromomethyl-5-hydroxy-7-trifluoromethyl-3-(5,6,7-trimethoxy-1H-indol-2-ylcarbonyl)-1,2,3,6-tetrahydropyrrolo[3,2e]indole-8-carboxylate] |  | 0.15 (≈ 0.239 nM) | 37 | 189 | 
4 | COC(=O)c1c(C(F)(F)F)[nH]c2c(O)cc3c(c12)C(CCl)CN3C(=O)c1cc2cc(OC)c(OC)c(OC)c2[nH]1 (centres unmarked) [Example 6, methyl 1-chloromethyl-5-hydroxy-7-trifluoromethyl-3-(5,6,7-trimethoxy-1H-indol-2-ylcarbonyl)-1,2,3,6-tetrahydropyrrolo[3,2-e]indole-8-carboxylate] |  | 0.24 (≈ 0.412 nM) |  |  | T/C (average survival days, dosed vs. solvent-dosed control) (P388 cells; i.p. 0.5 mg/kg single dose): 206%
5 | COC(=O)c1c(C(F)(F)F)[nH]c2c1C13CC1CN(C(=O)c1cc4cc(NC(=O)c5cc6ccccc6o5)ccc4[nH]1)C3=CC2=O (centres unmarked) [Example 24, Methyl 2-[5-[(benzofuran-2-ylcarbonyl)amino]-1H-indol-2-ylcarbonyl]-6-trifluoromethyl-1,2,8,8a-tetrahydrocyclopropa[c]pyrrolo[3,2-e]indole-4 (5H)-one-7-carboxylate] |  | 0.53 (≈ 0.862 nM) | 17 |  | T/C in words: cure (Survived for 60 days or longer) (P388 cells; i.p. 0.125 mg/kg single dose): Both cured; response vs control in vivo at 0.25 mg/kg (Colon-26 cells): 11%
6 | COC(=O)c1c(C(F)(F)F)[nH]c2c(OC(=O)N3CCN(C)CC3)cc3c(c12)C(CBr)CN3C(=O)c1cc2cc(NC(=O)c3cc4ccccc4o3)ccc2[nH]1 (centres unmarked) [Example 49] | 89 (≈ 108 nM) |  |  |  | response vs control in vivo at 0.5 mg/kg (Sarcoma-180 cells): 12%; T/C in words: cure (Survived for 60 days or longer) (P388 cells; i.p. 0.5 mg/kg single dose): Both cured; response vs control in vivo at 0.5 mg/kg (Colon-26 cells): 9%
7 | COC(=O)c1c(C(F)(F)F)[nH]c2c1C13CC1CN(C(=O)c1cc4cc(NC(=O)c5cc6ccccc6[nH]5)ccc4[nH]1)C3=CC2=O (centres unmarked) [Example 23, Methyl 2-[5-[(1H-indol-2-ylcarbonyl)amino]-1H-indol-2-ylcarbonyl]-6-trifluoromethyl-1,2,8,8a-tetrahydrocyclopropa[c]pyrrolo[3,2-e]indole-4 (5H)-one-7-carboxylate] |  | 0.86 (≈ 1.4 nM) | 16 |  | T/C in words: cure (Survived for 60 days or longer) (P388 cells; i.p. 0.25 mg/kg single dose): Both cured; response vs control in vivo at 0.25 mg/kg (Colon-26 cells): 12%
8 | COC(=O)c1c(C(F)(F)F)[nH]c2c1C13CC1CN(C(=O)c1cc4cc(OC)c(OC)c(OC)c4[nH]1)C3=CC2=O (centres unmarked) [Example 20, methyl 6-trifluoromethyl-2-(5,6,7-trimethoxy1H-indol-2-ylcarbonyl)-1,2,8,8a-tetrahydrocyclopropa[c]-pyrrolo[3,2e]indole-4 (5H)-one-7-carboxylate] |  | 0.24 (≈ 0.44 nM) |  | 194 | response vs control in vivo at 0.25 mg/kg (Sarcoma-180 cells; *(n = 4)): 36%; response vs control in vivo at 0.25 mg/kg (Colon-26 cells): 15%
9 | COC(=O)c1c(C(F)(F)F)[nH]c2c(OC(=O)N3CCN(C)CC3)cc3c(c12)C(CBr)CN3C(=O)c1cc2cc(OC)c(OC)c(OC)c2[nH]1 (centres unmarked) [Example 47, Methyl 1-bromomethyl-5-(4-methylpiperazin-1-ylcarbonyl)oxy-7-trifluoromethyl-3-(5,6,7-trimethoxy-1H-indol-2-ylcarbonyl)-1,2,3,6-tetrahydropyrrolo[3,2-e]indole-8-carboxylate] | 31 (≈ 41.2 nM) |  |  |  | response vs control in vivo at 1 mg/kg (Sarcoma-180 cells): 19%; T/C in words: cure (Survived for 60 days or longer) (P388 cells; i.p. 0.5 mg/kg single dose): Both cured; response vs control in vivo at 1 mg/kg (Colon-26 cells): 7%
10 | COC(=O)c1c(C(F)(F)F)[nH]c2c1C13CC1CN(C(=O)c1cc4cc(OC)ccc4[nH]1)C3=CC2=O (centres unmarked) [Example 22, Methyl 2-(5-methoxy-1H-indol-2-ylcarbonyl)-6-trifluoromethyl-1,2,8,8a-tetrahydrocyclopropa[c]pyrrolo[3,2-e]indole-4 (5H)-one-7-carboxylate] |  | 0.23 (≈ 0.474 nM) |  | 169 | 
11 | COC(=O)c1c(C(F)(F)F)[nH]c2c(OC(=O)N3CCN(C)CC3)cc3c(c12)C(CCl)CN3C(=O)c1cc2cc(OC)c(OC)c(OC)c2[nH]1 (centres unmarked) [Example 46] | 22 (≈ 31.1 nM) |  |  |  | T/C (average survival days, dosed vs. solvent-dosed control) (P388 cells; i.p. 4 mg/kg single dose): 221%
12 | COC(=O)c1c(C(F)(F)F)[nH]c2c(O)cc3c(c12)C(CBr)CN3C(=O)c1cc2cc(NC(=O)c3cc4ccccc4[nH]3)ccc2[nH]1 (centres unmarked) [Example 36, Methyl 1-bromomethyl-5-hydroxy-3-[5-[(1H-indol-2-ylcarbonyl)amino]-1H-indol-2-ylcarbonyl)-7-trifluoromethyl-1,2,3,6-tetrahydropyrrolo[3,2-e]indole-8-carboxylate] |  | 1.3 (≈ 1.87 nM) | 14 | 384 | 
